Among the data in patent US9212182B2, “Bicyclic sulfonamide compounds as sodium channel inhibitors” (AMGEN INC., priority 2013, dated 2015) are IC50 values, retold here.

SMILES strings stand for the structures.

One may read the IC50 as the concentration at which inhibition is half-maximal. Lower therefore signals greater potency.

Nav 1.7, sequence (Q15858 whole entry): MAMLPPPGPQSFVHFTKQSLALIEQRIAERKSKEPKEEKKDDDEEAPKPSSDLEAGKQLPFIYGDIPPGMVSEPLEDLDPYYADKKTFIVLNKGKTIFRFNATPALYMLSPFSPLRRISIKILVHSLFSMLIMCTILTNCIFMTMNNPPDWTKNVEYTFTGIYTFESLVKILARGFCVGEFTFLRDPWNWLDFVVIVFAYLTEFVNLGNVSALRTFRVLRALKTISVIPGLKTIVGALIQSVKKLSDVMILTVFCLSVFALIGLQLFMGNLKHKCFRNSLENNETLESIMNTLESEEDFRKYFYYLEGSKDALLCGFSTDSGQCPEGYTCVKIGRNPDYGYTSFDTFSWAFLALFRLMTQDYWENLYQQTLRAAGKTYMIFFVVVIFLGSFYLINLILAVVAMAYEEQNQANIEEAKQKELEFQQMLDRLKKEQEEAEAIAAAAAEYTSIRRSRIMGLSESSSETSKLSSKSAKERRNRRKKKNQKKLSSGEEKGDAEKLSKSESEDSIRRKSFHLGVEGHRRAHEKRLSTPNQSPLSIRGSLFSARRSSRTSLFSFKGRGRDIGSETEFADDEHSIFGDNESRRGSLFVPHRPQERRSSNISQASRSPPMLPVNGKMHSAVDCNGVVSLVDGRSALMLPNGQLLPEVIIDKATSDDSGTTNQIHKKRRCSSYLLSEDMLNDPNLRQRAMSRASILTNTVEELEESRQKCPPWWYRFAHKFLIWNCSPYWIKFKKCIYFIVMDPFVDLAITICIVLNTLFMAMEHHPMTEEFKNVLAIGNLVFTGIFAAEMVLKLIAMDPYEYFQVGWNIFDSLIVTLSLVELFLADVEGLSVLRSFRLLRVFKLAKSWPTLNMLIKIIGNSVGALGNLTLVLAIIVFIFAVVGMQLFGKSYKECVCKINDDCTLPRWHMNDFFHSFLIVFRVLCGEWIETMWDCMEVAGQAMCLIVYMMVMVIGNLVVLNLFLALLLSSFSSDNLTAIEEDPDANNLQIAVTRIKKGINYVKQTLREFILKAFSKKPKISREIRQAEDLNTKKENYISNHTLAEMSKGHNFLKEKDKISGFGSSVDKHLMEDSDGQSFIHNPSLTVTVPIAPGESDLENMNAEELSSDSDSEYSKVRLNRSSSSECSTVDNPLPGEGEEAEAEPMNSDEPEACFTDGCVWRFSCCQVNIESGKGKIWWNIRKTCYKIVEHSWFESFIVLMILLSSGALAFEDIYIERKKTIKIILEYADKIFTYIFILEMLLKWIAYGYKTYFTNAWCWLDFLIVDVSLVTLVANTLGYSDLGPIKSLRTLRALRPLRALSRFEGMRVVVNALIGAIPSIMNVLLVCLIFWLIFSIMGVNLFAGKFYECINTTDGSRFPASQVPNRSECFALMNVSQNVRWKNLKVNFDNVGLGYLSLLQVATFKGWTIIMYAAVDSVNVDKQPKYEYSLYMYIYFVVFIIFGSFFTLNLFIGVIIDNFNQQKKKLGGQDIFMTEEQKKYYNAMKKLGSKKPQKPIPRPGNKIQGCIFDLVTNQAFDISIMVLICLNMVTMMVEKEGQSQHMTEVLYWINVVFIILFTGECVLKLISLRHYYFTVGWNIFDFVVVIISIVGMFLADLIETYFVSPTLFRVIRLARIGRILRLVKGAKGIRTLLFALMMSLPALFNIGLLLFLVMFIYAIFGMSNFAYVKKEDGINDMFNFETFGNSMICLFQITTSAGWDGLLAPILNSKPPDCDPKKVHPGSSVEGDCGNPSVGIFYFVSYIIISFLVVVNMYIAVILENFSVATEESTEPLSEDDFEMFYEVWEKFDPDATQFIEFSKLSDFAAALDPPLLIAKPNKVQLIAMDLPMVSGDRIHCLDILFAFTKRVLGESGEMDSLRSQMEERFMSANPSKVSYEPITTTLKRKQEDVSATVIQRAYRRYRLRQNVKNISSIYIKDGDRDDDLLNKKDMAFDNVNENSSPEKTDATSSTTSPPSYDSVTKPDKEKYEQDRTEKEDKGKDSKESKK

One test addresses Nav 1.7 (Homo sapiens (Human), UniProt Q15858). Description: in-vitro Nav 1.7 PX (IC50). Format: cell-based.
Settings: not given
With `COc1cc(Br)ccc1-n1c(=O)ccc2cc(S(=O)(=O)Nc3ccon3)ccc21` (atropisomer, axis not shown; (P)) [Example 574, (P)-1-(4-bromo-2-methoxyphenyl)-N-3-isoxazolyl-2-oxo-1,2-dihydro-6-quinolinesulfonamide], the IC50 was determined as 772 nM. Take `COc1cc(-c2ccc(C)c(F)c2)ccc1-n1c(=O)ccc2cc(S(=O)(=O)Nc3ccon3)ccc21` (atropisomer, axis not shown; (P)) [Example 576, (P)-1-(3′-fluoro-3-methoxy-4′-methyl-4-biphenylyl)-N-3-isoxazolyl-2-oxo-1,2-dihydro-6-quinolinesulfonamide]: the IC50 was found to be 40 nM. The compound `COc1cc(-c2ccc(F)c(Cl)c2)ccc1-n1c(=O)ccc2cc(S(=O)(=O)Nc3ccon3)ccc21` (atropisomer, axis not shown; (P)) [Example 578, (P)-1-(3′-chloro-4′-fluoro-3-methoxy-4-biphenylyl)-N-3-isoxazolyl-2-oxo-1,2-dihydro-6-quinolinesulfonamide] came in with an IC50 of 16 nM. On the same count and under the same terms, the figure for `COc1cc(-c2ccc(Cl)c(F)c2)ccc1-n1c(=O)ccc2cc(S(=O)(=O)Nc3ccon3)ccc21` (atropisomer, axis not shown; (P)) [Example 580, (P)-1-(4′-chloro-3′-fluoro-3-methoxy-4-biphenylyl)-N-3-isoxazolyl-2-oxo-1,2-dihydro-6-quinolinesulfonamide] is 11 nM; for `COc1cc(-c2cccc(C)c2)ccc1-n1c(=O)ccc2cc(S(=O)(=O)Nc3ccon3)ccc21` (atropisomer, axis not shown; (P)) [Example 584, (P)-N-3-isoxazolyl-1-(3-methoxy-3′-methyl-4-biphenylyl)-2-oxo-1,2-dihydro-6-quinolinesulfonamide] it is 13 nM; for `COc1cc(-c2cc(C)cc(Cl)c2)ccc1-n1c(=O)ccc2cc(S(=O)(=O)Nc3ccon3)ccc21` (atropisomer, axis not shown; (P)) [Example 585, (P)-1-(3′-chloro-3-methoxy-5′-methyl-4-biphenylyl)-N-3-isoxazolyl-2-oxo-1,2-dihydro-6-quinolinesulfonamide] it is 8 nM. On the same count and under the same terms, under `COc1cc(-c2ccc(C)c(Cl)c2)ccc1-n1c(=O)ccc2cc(S(=O)(=O)Nc3ccon3)ccc21` (atropisomer, axis not shown; (P)) [Example 587, (P)-1-(3′-chloro-3-methoxy-4′-methyl-4-biphenylyl)-N-3-isoxazolyl-2-oxo-1,2-dihydro-6-quinolinesulfonamide] stands 20 nM; under `COc1cc(-c2ccc(C(F)(F)F)cc2)c(F)cc1-n1c(=O)ccc2cc(S(=O)(=O)Nc3ncco3)ccc21` (atropisomer, axis not shown; (P)) [Example 636, (P)-1-(2-fluoro-5-methoxy-4′-(trifluoromethyl)-4-biphenylyl)-N-1,3-oxazol-2-yl-2-oxo-1,2-dihydro-6-quinolinesulfonamide], 31 nM.

`COc1cc(C#CC2(F)CCCC2)c(F)cc1-n1c(=O)ccc2cc(S(=O)(=O)Nc3ccon3)ccc21` (atropisomer, axis not shown; (P)) [Example 1153, (P)-1-(5-fluoro-4-((1-fluorocyclopentyl)ethynyl)-2-methoxyphenyl)-N-3-isoxazolyl-2-oxo-1,2-dihydro-6-quinolinesulfonamide] gave an IC50 of 35 nM.

The test is the same for the next values; noted with them: in-vitro Nav 1.7 PX data.
`COc1cc(-c2cccc(F)c2)ncc1-n1c(=O)ccc2cc(S(=O)(=O)Nc3ccon3)ccc21` (atropisomer, axis not shown; (P)) [Example 602, (P)-1-(6-(3-fluorophenyl)-4-methoxy-3-pyridinyl)-N-3-isoxazolyl-2-oxo-1,2-dihydro-6-quinolinesulfonamide] had an IC50 of 709 nM. The same measure, in the same setting: the figure for `COc1ccc(-c2cccc(F)c2)cc1-n1c(=O)ccc2cc(S(=O)(=O)Nc3ncccn3)ccc21` (atropisomer, axis not shown; (P)) [Example 606, (P)-1-(3′-fluoro-4-methoxy-3-biphenylyl)-2-oxo-N-2-pyrimidinyl-1,2-dihydro-6-quinolinesulfonamide] is 159 nM; for `COc1cc(Cl)c(-c2cccc(F)c2)cc1-n1c(=O)ccc2cc(S(=O)(=O)Nc3ccon3)ccc21` (atropisomer, axis not shown; (P)) [Example 608, (P)-1-(6-chloro-3′-fluoro-4-methoxy-3-biphenylyl)-N-3-isoxazolyl-2-oxo-1,2-dihydro-6-quinolinesulfonamide] it is 12 nM.

The compound `COc1ccc(-c2cc(F)cc(Cl)c2)cc1-n1c(=O)ccc2cc(S(=O)(=O)Nc3ccncn3)ccc21` (atropisomer, axis not shown; (P)) [Example 611, (P)-1-(3′-chloro-5′-fluoro-4-methoxy-3-biphenylyl)-2-oxo-N-4-pyrimidinyl-1,2-dihydro-6-quinolinesulfonamide] had an IC50 of 29 nM. Against the preceding compound, the IC50 is about 2.4-fold higher. In turn, `COc1cc(Cl)c(-c2cc(F)cc(Cl)c2)cc1-n1c(=O)ccc2cc(S(=O)(=O)Nc3ccon3)ccc21` (atropisomer, axis not shown; (P)) [Example 614, (P)-1-(3′,6-dichloro-5′-fluoro-4-methoxy-3-biphenylyl)-N-3-isoxazolyl-2-oxo-1,2-dihydro-6-quinolinesulfonamide] came in with an IC50 of 9 nM. Still for that read-out and setting: under `COc1cc(-c2ccc(Cl)cc2)c(F)cc1-n1c(=O)ccc2cc(S(=O)(=O)Nc3ccon3)ccc21` (atropisomer, axis not shown; (P)) [Example 633, (P)-1-(4′-chloro-2-fluoro-5-methoxy-4-biphenylyl)-N-3-isoxazolyl-2-oxo-1,2-dihydro-6-quinolinesulfonamide] stands 7 nM; under `Cc1cc(-c2cc(C)c(-n3c(=O)ccc4cc(S(=O)(=O)Nc5ncccn5)ccc43)cc2F)ccc1Cl` (atropisomer, axis not shown; (P)) [Example 649], 49 nM; under `COc1cc(-c2ccc(Cl)c(C)c2)c(F)cc1-n1c(=O)ccc2cc(S(=O)(=O)Nc3ncon3)ccc21` (atropisomer, axis not shown; (P)) [Example 663, (P)-1-(4′-chloro-2-fluoro-5-methoxy-3′-methyl-4-biphenylyl)-N-1,2,4-oxadiazol-3-yl-2-oxo-1,2-dihydro-6-quinolinesulfonamide], 6 nM. Still for that read-out and setting: under `COc1nc(-c2cc(F)cc(F)c2)c(Cl)cc1-n1c(=O)ccc2cc(S(=O)(=O)Nc3ccon3)ccc21` (atropisomer, axis not shown; (P)) [Example 665, (P)-1-(5-chloro-6-(3,5-difluorophenyl)-2-methoxy-3-pyridinyl)-N-3-isoxazolyl-2-oxo-1,2-dihydro-6-quinolinesulfonamide] stands 15 nM; under `COc1cc(-c2cccc(C(F)(F)F)c2)ccc1-n1c(=O)ccc2cc(S(=O)(=O)Nc3ccncn3)ccc21` (atropisomer, axis not shown; (P)) [Example 671, (P)-1-(3-methoxy-3′-(trifluoromethyl)-4-biphenylyl)-2-oxo-N-4-pyrimidinyl-1,2-dihydro-6-quinolinesulfonamide], 11 nM. With `COc1cc(-c2ccc(-n3c(=O)ccc4cc(S(=O)(=O)Nc5ccon5)ccc43)c(OC)c2)ccc1C` (atropisomer, axis not shown; (P)) [Example 686, (P)-1-(3,3′-dimethoxy-4′-methyl-4-biphenylyl)-N-3-isoxazolyl-2-oxo-1,2-dihydro-6-quinolinesulfonamide], the IC50 came to 15 nM. Take `COc1cc(-c2ccc(Cl)c(C)c2)ccc1-n1c(=O)ccc2cc(S(=O)(=O)Nc3ccc(F)cn3)ccc21` (atropisomer, axis not shown; (P)) [Example 689, (P)-1-(4′-chloro-3-methoxy-3′-methyl-4-biphenylyl)-N-(5-fluoro-2-pyridinyl)-2-oxo-1,2-dihydro-6-quinolinesulfonamide]: inhibition was half-maximal at 50 nM (IC50). For the compound `COc1cc(-c2ccc(Cl)c(C)c2)ccc1-n1c(=O)ccc2cc(S(=O)(=O)Nc3ncc(F)cn3)ccc21` (atropisomer, axis not shown; (P)) [Example 690, (P)-1-(4′-chloro-3-methoxy-3′-methyl-4-biphenylyl)-N-(5-fluoro-2-pyrimidinyl)-2-oxo-1,2-dihydro-6-quinolinesulfonamide], the IC50 turned out to be 49 nM. This IC50 and that of the compound before are within 1.5-fold of each other.

Turning to `COc1cc(-c2ccc(Cl)c(C)c2)c(F)cc1-n1c(=O)ccc2cc(S(=O)(=O)Nc3ncc(F)cn3)ccc21` (atropisomer, axis not shown; (P)) [Example 692, (P)-1-(4′-chloro-2-fluoro-5-methoxy-3′-methyl-4-biphenylyl)-N-(5-fluoro-2-pyrimidinyl)-2-oxo-1,2-dihydro-6-quinolinesulfonamide], the IC50 is 30 nM. With `COc1cc(-c2ccc(Cl)c(C)c2)c(F)cc1-n1c(=O)ccc2cc(S(=O)(=O)Nc3ccc(F)cn3)ccc21` (atropisomer, axis not shown; (P)) [Example 693, (P)-1-(4′-chloro-2-fluoro-5-methoxy-3′-methyl-4-biphenylyl)-N-(5-fluoro-2-pyridinyl)-2-oxo-1,2-dihydro-6-quinolinesulfonamide], the midpoint of inhibition, the IC50, lay at 186 nM. Turning to `COc1cc(-c2ccc(Cl)c(C)c2)c(F)cc1-n1c(=O)ccc2cc(S(=O)(=O)Nc3ncco3)ccc21` (atropisomer, axis not shown; (P)) [Example 694, (P)-1-(4′-chloro-2-fluoro-5-methoxy-3′-methyl-4-biphenylyl)-N-1,3-oxazol-2-yl-2-oxo-1,2-dihydro-6-quinolinesulfonamide], the IC50 was determined as 27 nM. `COc1cc(-c2ccc(Cl)c(C)c2)c(F)cc1-n1c(=O)ccc2cc(S(=O)(=O)Nc3cccnn3)ccc21` (atropisomer, axis not shown; (P)) [Example 695, (P)-1-(4′-chloro-2-fluoro-5-methoxy-3′-methyl-4-biphenylyl)-2-oxo-N-3-pyridazinyl-1,2-dihydro-6-quinolinesulfonamide]: the IC50 is 12 nM.

Still in this test, the particulars now being: in-vitro Nav 1.7 PX data (PatchXpress).
For `O=c1ccc2cc(S(=O)(=O)Nc3ccon3)ccc2n1-c1ccc(-c2cc(F)cc(F)c2)cc1C1CC1` (atropisomer, axis not shown; (P)) [Example 629, (P)-1-(3-cyclopropyl-3′,5′-difluoro-4-biphenylyl)-N-3-isoxazolyl-2-oxo-1,2-dihydro-6-quinolinesulfonamide], the IC50 amounted to 127 nM.
